# Experimental data taken from patent US7173040B2, “Farnesyl transferase inhibiting 6-[(substituted phenyl)methyl]-quinoline and quinazoline derinazoline derivatives” (Janssen Pharmaceutica N.V., priority 2000, dated 2007).
row,SMILES,melting point [°C]
1,"Cn1cnnc1C(O)(c1ccc(Cl)cc1)c1ccc2c(c1)c(-c1cccc(Cl)c1)cc(=O)n2Cc1ccc(C#N)cc1 (stereo not drawn) [Example B33, 4-[[4-(3-chlorophenyl)-6-[(4-chlorophenyl)hydroxy(4-methyl-4H-1,2,4-triazol-3-yl)methyl]-2-oxo-1(2H)-quinolinyl]methyl]-benzonitrile]",185
2,"Cn1cnnc1C(C)(c1ccc(Cl)cc1)c1ccc2c(c1)c(-c1cccc(Cl)c1)cc(=O)n2C.O=C(O)C(=O)O (stereo not drawn) [Example B34, 4-(3-chlorophenyl)-6-[1-(4-chlorophenyl)-1-(4-methyl-4H-1,2,4-triazol-3-yl)ethyl]-1-methyl-2(1H)-quinolinone ethanedioate (1:1)]",130
3,"CCOC(=O)c1cn2c(cc(-c3cccc(Cl)c3)c3cc(C(c4ccc(Cl)cc4)c4nncn4C)ccc32)n1 (stereo not drawn) [Example B35, ethyl 5-(3-chlorophenyl)-7-[(4-chlorophenyl)(4-methyl-4H-1,2,4-triazol-3-yl)methyl]-imidazo[1,2-a]quinoline-2-carboxylate]",220
4,"Cn1cncc1C(O)(c1ccc(C=O)cc1)c1ccc2c(c1)c(-c1cccc(Cl)c1)nc1nnnn12 (stereo not drawn) [Example B38, 4-[[5-(3-chlorophenyl)tetrazolo[1,5-a]quinazolin-7-yl]hydroxy(1-methyl-1H-imidazol-5-yl)methyl]-benzaldehyde]",170
5,"Cn1c(=O)cc(-c2cccc(Cl)c2)c2cc(C(O)(c3ccc(Cl)cc3)c3cnccc3Cl)ccc21 (stereo not drawn) [Example B39, 4-(3-chlorophenyl)-6-[(4-chlorophenyl)(4-chloro-3-pyridinyl)hydroxymethyl]-1-methyl-2(1H)-quinolinone]",178
6,"Cn1c(=O)cc(-c2cccc(Cl)c2)c2cc(C(N)(c3ccc(Cl)cc3)c3cnccc3Cl)ccc21 (stereo not drawn) [Example B40b, 6-[amino(4-chlorophenyl)(4-chloro-3-pyridinyl)methyl]-4(3-chlorophenyl)-1-methyl-2(1H)-quinolinone]",180

# Second part, the compound after the results:
row,melting point [°C],SMILES
1,245,"Cn1cncc1C(N)(c1ccc(C#N)cc1)c1ccc2c(c1)c(-c1cccc(Cl)c1)cc(=O)n2C (stereo not drawn) [Example B41d, 4-[amino[4-(3-chlorophenyl)-1,2-dihydro-1-methyl-2-oxo-6quinolinyl](1-methyl-1H-imidazol-5-yl)methyl]-benzonitrile]"
2,150,"Cn1cncc1C(N)(c1ccc(CN)cc1)c1ccc2c(c1)c(-c1cccc(Cl)c1)cc(=O)n2C (stereo not drawn) [Example B41e, 6-[amino[4-(aminomethyl)phenyl](1-methyl-1H-imidazol-5-yl)methyl]-4-(3-chlorophenyl)-1-methyl-2(1H)-quinolinone]"
3,262,"Cn1c(=O)cc(-c2cccc(Cl)c2)c2cc(C(O)(c3ccc(Cl)cc3)c3cnccc3N)ccc21 (stereo not drawn) [Example B42, 6-[(4amino-3-pyridinyl)(4-chlorophenyl)hydroxymethyl]-4-(3-chlorophenyl)-1-methyl-2(1H)-quinolinone]"
4,150,"CC(C)OC(=O)c1cccc(C(O)(c2ccc3c(c2)c(-c2cccc(Cl)c2)cc(=O)n3C)c2cncn2C)c1 (stereo not drawn) [Example B45a, 1-methylethyl 3-[[4-(3-chlorophenyl)-1,2-dihydro-1-methyl-2-oxo-6-quinolinyl]hydroxy(1-methyl-1H-imidazol-5-yl)methyl]-benzoate]"
5,150,"Cn1cncc1C(O)(c1cccc(CO)c1)c1ccc2c(c1)c(-c1cccc(Cl)c1)cc(=O)n2C (stereo not drawn) [Example B45b, 4-(3-chlorophenyl)-6-[hydroxy[3-(hydroxymethyl)phenyl](1-methyl-1H-imidazol-5-yl)methyl]-1-methyl-2(1H)-quinolinone]"
6,201,"Cn1cnnc1C(O)(c1ccc(I)cc1)c1ccc2c(c1)C(c1cccc(Cl)c1)Nc1nnnn1-2 (stereo not drawn) [Example B46, 5-(3-chlorophenyl)-4,5-dihydro-α-(4-iodophenyl)-α-(4-methyl-4H-1,2,4-triazol-3-yl)-tetrazolo[1,5-a]quinazoline-7-methanol]"
